Assay: xn = mol fraction of the nth substance listed
Settings: 101.3 kPa, Liquid; for viscosity: Capillary tube (Ostwald / Ubbelohde) method; for mass density: Pycnometric method

Clc1ccccc1 [chlorobenzene] + CN(C)C=O
Settings	mass density, 298.15 K [kg/m3]	mass density, 303.15 K [kg/m3]	mass density, 308.15 K [kg/m3]	mass density, 313.15 K [kg/m3]	viscosity, 298.15 K [mPa·s]	viscosity, 303.15 K [mPa·s]	viscosity, 308.15 K [mPa·s]	viscosity, 313.15 K [mPa·s]
x2 = 0	1100.9	1095.8	1090.8	1085.1	0.756	0.714	0.673	0.635
x2 = 0.1473	1083.5	1078.5	1073.6	1068.1	0.79	0.745	0.701	0.661
x2 = 0.2093	1076.3	1071.3	1066.5	1063.1	0.804	0.757	0.712	0.671
x2 = 0.2762	1068.1	1063.2	1058.3	1052.9	0.818	0.77	0.723	0.681
x2 = 0.4032	1051.2	1046.3	1041.5	1036.3	0.838	0.788	0.739	0.696
x2 = 0.4661	1042.2	1037.3	1032.5	1027.2	0.847	0.795	0.745	0.702
x2 = 0.6084	1020.2	1015.4	1010.6	1005.4	0.862	0.808	0.757	0.714
x2 = 0.7009	1003.8	999.1	994.5	989.4	0.856	0.803	0.752	0.709
x2 = 0.7842	988.1	983.4	978.7	973.7	0.846	0.794	0.744	0.702
x2 = 0.9351	957.7	953	948.3	943.4	0.818	0.769	0.721	0.683

Clc1ccccc1 [chlorobenzene] + c1ccccc1
Settings	mass density, 298.15 K [kg/m3]	mass density, 303.15 K [kg/m3]	mass density, 308.15 K [kg/m3]	mass density, 313.15 K [kg/m3]	viscosity, 298.15 K [mPa·s]	viscosity, 303.15 K [mPa·s]	viscosity, 308.15 K [mPa·s]	viscosity, 313.15 K [mPa·s]
x2 = 0	1100.9	1095.8	1090.8	1085.1	0.756	0.714	0.673	0.635
x2 = 0.1206	1076.5	1071.4	1066.4	1060.7	0.744	0.699	0.656	0.618
x2 = 0.2642	1046.5	1041.4	1036.3	1030.7	0.727	0.682	0.639	0.601
x2 = 0.3982	1017.5	1012.4	1007.3	1001.7	0.711	0.667	0.623	0.585
x2 = 0.4644	1002.8	997.7	992.6	987	0.702	0.659	0.616	0.578
x2 = 0.5321	987.7	982.5	977.3	971.7	0.694	0.65	0.607	0.57
x2 = 0.6074	970.4	965.2	960	954.5	0.683	0.64	0.598	0.561
x2 = 0.7069	946.8	941.6	936.4	930.9	0.665	0.623	0.582	0.545
x2 = 0.8131	920.9	915.7	910.5	905	0.643	0.601	0.562	0.527
x2 = 0.9162	895	889.8	884.6	879.2	0.621	0.583	0.545	0.512

CN(C)C=O [dimethylformamide] + c1ccccc1
Settings	mass density, 298.15 K [kg/m3]	mass density, 303.15 K [kg/m3]	mass density, 308.15 K [kg/m3]	mass density, 313.15 K [kg/m3]	viscosity, 298.15 K [mPa·s]	viscosity, 303.15 K [mPa·s]	viscosity, 308.15 K [mPa·s]	viscosity, 313.15 K [mPa·s]
x1 = 0.1076	881.1	876	870.8	865.4	0.622	0.585	0.547	0.515
x1 = 0.2069	888.4	883.5	878.4	873.3	0.641	0.603	0.564	0.531
x1 = 0.3124	896.3	891.4	886.5	881.5	0.662	0.622	0.582	0.549
x1 = 0.4132	904.2	899.4	894.6	889.6	0.688	0.645	0.602	0.567
x1 = 0.5148	911.7	906.9	902.2	897.2	0.712	0.67	0.627	0.592
x1 = 0.6145	918.6	913.7	908.9	904	0.731	0.688	0.644	0.608
x1 = 0.7093	925	920.2	915.4	910.3	0.747	0.703	0.659	0.622
x1 = 0.8084	931.6	927	922.2	917.2	0.763	0.718	0.673	0.636
x1 = 0.8998	936.8	932.1	927.4	922.5	0.78	0.734	0.689	0.651
x1 = 1	944.5	939.8	935.1	930.2	0.803	0.756	0.71	0.673

Source: the NIST ThermoML archive (doi:10.1021/je030130y)
